What was measured:
Nrf2 = experiment: Nrf2-ARE induction, luciferase assay in AREc32 cells; assay type: cell-based; settings: CD: concentration required to double the specific activity of the luciferase gene, 24 h treatment
[1] = SFNA/αCD association constant by 1H NMR titration in D2O; assay type: physicochemical; settings: 298 K, SFNA 2 mM against increasing α-cyclodextrin
Protocol: The preparation of inclusion complexes was carried out by a physical mixture in water between α-cyclodextrin (host) and the sulforaphane analogue (guest; SFNA). The confirmation of complex formation, its stoichiometry, association constant (Kas), and degree of degradation were determined using ^1H NMR spectroscopy.
Determination of the SFNA/αCD association constant. The determination of association constants (Kas, M^-1) for the SFNA/αCD complex was performed through ^1H NMR titration experiments in D2O. The association constants at 298 K were experimentally determined by measuring the changes in chemical shift (Δδ, ppm) of the ^1H NMR signals using fixed solutions of the analogues against increasing concentrations of α-cyclodextrin. In a typical titration experiment, a 2 mM solution of the SFN analogue in D2O was prepared, and a 500 µL aliquot was transferred to the NMR tube, and the initial spectrum was recorded. Furthermore, a solution of a mixture (SFNA at 2 mM/ αCD at 16.11 mM) was prepared and added in 10 µL aliquots to the NMR tube, keeping the analogue concentration constant. The added amounts of α-cyclodextrin were increased until complete complexation of the analogue, and ^1H NMR spectra were recorded after each addition. The mathematical treatment of the curves of chemical shift variations of the analogue proton signals (Δδ) against increasing α-cyclodextrin concentrations using an iterative least-squares fitting procedure allowed for the determination of the Kas values for the analogues (Table 1).

AML cell lines = assay type: cell-based, human
[2] = test system: normal cell subpopulations from healthy donors; experiment: Ex vivo cell viability by flow cytometry on normal cells; assay type: cell-based, human; settings: normal cell subpopulations from healthy donors including hematopoietic precursor cells, 18 h
Protocol: Primary human cells from healthy donors were used in ex vivo assays. The mononuclear fraction was extracted with Ficoll-Paque by density gradient centrifugation and subsequently differentiated from the other cell populations by flow cytometry using an appropriate combination of antibodies: anti-human CD45-Pacific Blue, CD34-FITC, CD19-APC-H7 (BD Biosciences, San Jose, CA) and CD3-FITC (Invitrogen).
Cell viability and cell lysis were also assessed by annexin V/7-AAD using flow cytometry. Donor cells were analysed using 7-AAD a combination of monoclonal antibodies (anti-CD45-Pacific Blue, anti-CD34-FITC, anti-CD3-FITC, anti-CD19-APC-H7). The cells were acquired with the FACSCanto II flow cytometer (BD Biosciences) and analysed with the Infinicyt™ software (Cytognos, Spain).

| SMILES | EC (2-fold) (Nrf2; read-out: CD ± SEM) [µM] | Kas [1] | proapoptotic effect on AML cell lines (AML cell lines) | viability of normal healthy cells [2] | CD ± SEM (Nrf2) [µM] |
| --- | --- | --- | --- | --- | --- |
| C[S+]([O-])CCCCN=C=S (stereo not shown) [SFN-1, sulforaphane, reference compound] | 0.44 ± 0.28 |  |  |  |  |
| CCOP(=O)(OCC)OCCCN=C=S [SFN-10, Diethyl (3-isothiocyanatopropyl) phosphate] |  | 34,87 M^-1 | partially selective proapoptotic effect | not affected | 0.56 ± 0.07 |
| CCOP(=O)(CCCCN=C=S)OCC [SFN-14, Diethyl (4-isothiocyanatobutyl)phosphonate] |  | 135,95 M^-1 | partially selective proapoptotic effect |  |  |
| CC(C)OP(=O)(OCCCN=C=S)OC(C)C [SFN-15, Diisopropyl (3-isothiocyanatopropyl) phosphate] |  | 101,95 M^-1 |  |  | 0.52 ± 0.08 |
| O=P(OCCCN=C=S)(Oc1ccccc1)Oc1ccccc1 [SFN-16, Diphenyl 3-isothiocyanatopropyl phosphate] |  |  |  |  | 1.55 ± 0.45 |
